The values that follow come from PMC10525924, “Engineering and Purification of Microcin C7 Variants Resistant to Trypsin and Analysis of Their Biological Activity” (Antibiotics, 2023).

Entries after “also recorded” stand apart in the source; their conditions may differ. Where a SMILES comes first, the peptide text is derived from it. Where no end group is shown, it is not given here.

One data set relates to E. coli K88. Briefly: microbe, parasite or virus in culture. The following applies: agar diffusion, fermentation supernatant, not trypsin-treated. The class given is cell-based. On the technique in general: A growth-free zone around the sample is the usual read-out of agar diffusion tests.
The subject of a further data set is pepsin. Description: Remaining amount by RP-HPLC after pepsin treatment. The data set is classed as in vitro ADME. The following applies: pepsin (isolated protease); pepsin treated for 3 h; read-out RP-HPLC; Table S2.
In data set [1] the test system is chymotrypsin. Briefly: Remaining amount by RP-HPLC after chymotrypsin treatment. The data set is classed as in vitro ADME. The note with it: chymotrypsin (isolated protease); chymotrypsin treated for 3 h; read-out RP-HPLC; Table S2.
For a further data set, the system named is indicator bacteria. The following applies: second to seventh codons of mccA replaced; cited from earlier work. The source says: The heptapeptide precursor of McC, f-MRTGNAN, is encoded by the first gene in the mcc gene clusters, mccA [11]. Considering its protein nature, it is suitable for gene-based peptide engineering. Kazakov et al. first applied site-directed mutagenesis on the mccA gene, systematically replacing the second to seventh codons of mccA encoding 19 standard amino acids for a total of 114 mutations.

A further data set deals with trypsin. Briefly: Remaining amount by RP-HPLC after trypsin treatment. The following applies: trypsin treatment 3 h. The method, then:
To test whether the variants were tolerant to trypsin or other digestive enzymes, the amount of the remaining McC and its analogues remaining was determined by RP-HPLC after trypsin, pepsin, and chymotrypsin treated for 3 h (Table S2), and the inhibition zones of trypsin-treated variants were tested using the same method (Table 2).
The fermentation broth was collected via centrifugation at 12,000× g at 4 °C for 10 min; the supernatants contained the McC variants. The supernatants and trypsin were mixed at a ratio of 9:1 (v/v; the final concentration of trypsin was 50 μg/mL) and incubated in a bath at 37 °C for 3 h. The pH was adjusted to 6.8. The pH value of the fermentation broth was measured before and after treatment, and an approximate pH value of 7 was considered normal.

For data set [2] the following is noted: cited from earlier work. An excerpt: (§1) The McC as a new generation of antimicrobials is now receiving increased attention because of its antimicrobial activity against a wide range of Gram-negative bacteria, including Escherichia, Klebsiella, Salmonella, Shigella, and Proteus species. However, […] proteolytic enzymes in the stomach and the small intestine, such as pepsin, trypsin, and chymotrypsin, need to be considered before the application of McC or other microcins in different fields.

Data set [3] has as its system chymotrypsin. The note with it: cited from earlier work.
Excerpt: as §1

Broadly, the share remaining is the share of the starting amount still present when the sample was taken. As for `CSCC[C@H](NC=O)C(=O)N[C@@H](CCC(=O)O)C(=O)N[C@H](C(=O)NCC(=O)N[C@@H](CC(N)=O)C(=O)N[C@@H](C)C(=O)N[C@@H](CC(=O)O)C(=O)NP(=O)(OCCCN)OC[C@H]1O[C@@H](n2cnc3c(N)ncnc32)[C@H](O)[C@@H]1O)[C@@H](C)O` (stereo partly shown) [R2E] (HELM PEPTIDE1{[O=C[*:2]].M.E.T.G.N.A.[NCCCOP(=O)(NC(=O)[C@H](CC(=O)O)N[*:1])OC[C@H]1O[C@@H](n2cnc3c(N)ncnc32)[C@H](O)[C@@H]1O]}$$$$V2.0), the “bacteriostatic effect on indicator strain K88” value (“bacteriostatic effect” below) in the data set with E. coli K88 is given as “no bacteriostatic effects”. In addition, the amount remaining at 3 h with pepsin amounted to 90.72 ± 0.74%; in the data set with chymotrypsin [1] it was 38.4 ± 0.97%.
For the compound `CSCC[C@H](NC=O)C(=O)N[C@@H](CC(N)=O)C(=O)N[C@H](C(=O)NCC(=O)N[C@@H](CC(N)=O)C(=O)N[C@@H](C)C(=O)N[C@@H](CC(=O)O)C(=O)NP(=O)(OCCCN)OC[C@H]1O[C@@H](n2cnc3c(N)ncnc32)[C@H](O)[C@@H]1O)[C@@H](C)O` (stereo partly shown) [R2N] (HELM PEPTIDE1{[O=C[*:2]].M.N.T.G.N.A.[NCCCOP(=O)(NC(=O)[C@H](CC(=O)O)N[*:1])OC[C@H]1O[C@@H](n2cnc3c(N)ncnc32)[C@H](O)[C@@H]1O]}$$$$V2.0), the “bacteriostatic effect” value with E. coli K88 is recorded as “no bacteriostatic effects”. The fraction remaining at 3 h amounted to 88.79 ± 0.88% in the data set on pepsin and 37.7 ± 1.1% in the data set on chymotrypsin [1].
Take `CSCC[C@H](NC=O)C(=O)N1CCC[C@H]1C(=O)N[C@H](C(=O)NCC(=O)N[C@@H](CC(N)=O)C(=O)N[C@@H](C)C(=O)N[C@@H](CC(=O)O)C(=O)NP(=O)(OCCCN)OC[C@H]1O[C@@H](n2cnc3c(N)ncnc32)[C@H](O)[C@@H]1O)[C@@H](C)O` (stereo partly shown) [R2P] (HELM PEPTIDE1{[O=C[*:2]].M.P.T.G.N.A.[NCCCOP(=O)(NC(=O)[C@H](CC(=O)O)N[*:1])OC[C@H]1O[C@@H](n2cnc3c(N)ncnc32)[C@H](O)[C@@H]1O]}$$$$V2.0): in the data set on E. coli K88, the “bacteriostatic effect” value was “no bacteriostatic effects”. Further, the fraction remaining at 3 h in the data set with pepsin came to 86.9 ± 1.24%; with chymotrypsin [1], 42.8 ± 0.76%.
Consider `CSCC[C@H](NC=O)C(=O)N[C@@H](Cc1c[nH]c2ccccc12)C(=O)N[C@H](C(=O)NCC(=O)N[C@@H](CC(N)=O)C(=O)N[C@@H](C)C(=O)N[C@@H](CC(=O)O)C(=O)NP(=O)(OCCCN)OC[C@H]1O[C@@H](n2cnc3c(N)ncnc32)[C@H](O)[C@@H]1O)[C@@H](C)O` (stereo partly shown) [R2W] (HELM PEPTIDE1{[O=C[*:2]].M.W.T.G.N.A.[NCCCOP(=O)(NC(=O)[C@H](CC(=O)O)N[*:1])OC[C@H]1O[C@@H](n2cnc3c(N)ncnc32)[C@H](O)[C@@H]1O]}$$$$V2.0), for which the “bacteriostatic effect” value in the data set on E. coli K88 is given as “no bacteriostatic effects”. The figures for the share remaining at 3 h in the data set with pepsin and in the data set on chymotrypsin [1] were 91.3 ± 1.26% and 41.3 ± 1.03%, respectively. In the data set on indicator bacteria, the “antimicrobial activity of mccA substitution variants” value is reported as “bacteriostatic”.
Consider MRPGNAN [T3P], for which, in the data set on E. coli K88, the “bacteriostatic effect” value was “no bacteriostatic effects”. For the same compound, the “degradation by / resistance to trypsin” value in the data set on trypsin is listed as “no longer degraded by trypsin; also recorded: exhibited resistance to trypsin”.
The matching figures for MRPTGNAN: “no bacteriostatic effects” and “no longer degraded by trypsin; also recorded: exhibited resistance to trypsin”.
On to “microcin J25 (GGAGHVPEYFVGIGTPISFYG; ends and bridges not checked; UniProt Q9X2V7 38-58, looked up) [microcin studied by Yu et al]”, for which the “stability in the gastrointestinal tract” value in data set [2] is reported as “stable”. For the same compound, in the data set on chymotrypsin [3], the “degradation upon exposure to chymotrypsin” value is “completely degraded”.
